# Test results: patent US12419890B2, “Administration of sumo-activating enzyme inhibitor and checkpoint inhibitors” (Takeda Pharmaceutical Company Limited, priority 2019, dated 2025)
# Experiments:
# [1] = tested on: CT26 syngeneic mouse colon fibroblast carcinoma-derived subcutaneous tumor; assay: CT26 Study 2: mouse CT26 syngeneic tumor model, individual tumor volume; assay type: in vivo; conditions: Compound I-263a 7.5 mg/kg IV and anti-mPD-1 10 mg/kg IP, Day 0, 3, 7, 10, 14; 9 tumors/group
# Description: CT26 Study 2: CT26 is a mouse colon fibroblast carcinoma cell line. CT26 mouse syngeneic tumor model was generated by subcutaneous inoculation with 0.2×10^6 CT-26 cells (cell suspension) in 10 weeks old female BALB/c mice (Vital River Laboratory Animal Technology Co., Ltd., Beijing, China) in the flank. When the mean tumor volume reached approximately 40 mm^3, the animals were randomized into one vehicle control and three treatment groups (n=9/group). Mice were then dosed with 20% HPbCD or Compound I-263a or anti-mouse PD-1 antibody over a 14-day period. Tumor growth and body weight were measured twice per week during the treatment and post-treatment periods, and mice were humanely euthanized once they had reached their humane endpoint.
# Study 2: A 0.75 mg/mL stock solution of Compound I-263a was formulated weekly in 20% HPβCD and administered intravenously (IV) based on exact animal body weight on each day of treatment, using a dosing volume of 10 mL/kg body weight. Final doses received were 7.5 mg/kg. Dosing volume for Compound I-263a was 0.2 mL. […]
# Tumors were measured twice weekly using vernier calipers. Tumor volumes were calculated using standard equation: V=W^2×L/2, where V=volume, W=width, and L=length for the tumor. […] Tumor size and body weight were measured twice a week for the duration of the study. […]
# SUMO-activating enzyme = target: T1, SUMO-activating enzyme (Homo sapiens, UniProt Q9UBT2); assay: biochemical assays of SUMO-activating enzyme
# T1 sequence (Q9UBT2 1-640): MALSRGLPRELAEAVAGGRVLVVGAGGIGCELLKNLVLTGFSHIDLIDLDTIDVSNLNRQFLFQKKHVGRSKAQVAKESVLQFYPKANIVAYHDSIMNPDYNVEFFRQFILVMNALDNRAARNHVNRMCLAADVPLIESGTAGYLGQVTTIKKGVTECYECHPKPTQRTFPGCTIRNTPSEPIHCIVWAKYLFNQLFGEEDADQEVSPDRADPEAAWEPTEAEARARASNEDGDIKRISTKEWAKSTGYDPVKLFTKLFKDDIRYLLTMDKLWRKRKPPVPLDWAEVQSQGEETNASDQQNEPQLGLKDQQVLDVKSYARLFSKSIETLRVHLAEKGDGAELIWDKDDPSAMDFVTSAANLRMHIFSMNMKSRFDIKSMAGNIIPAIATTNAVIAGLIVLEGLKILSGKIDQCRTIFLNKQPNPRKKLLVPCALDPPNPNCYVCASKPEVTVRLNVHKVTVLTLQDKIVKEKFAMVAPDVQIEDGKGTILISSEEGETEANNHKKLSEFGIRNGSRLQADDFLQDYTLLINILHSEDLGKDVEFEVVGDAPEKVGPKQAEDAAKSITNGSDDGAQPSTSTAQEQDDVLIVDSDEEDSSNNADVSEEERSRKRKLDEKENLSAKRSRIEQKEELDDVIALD
# T1 sequence (Q9UBE0 1-346 partner): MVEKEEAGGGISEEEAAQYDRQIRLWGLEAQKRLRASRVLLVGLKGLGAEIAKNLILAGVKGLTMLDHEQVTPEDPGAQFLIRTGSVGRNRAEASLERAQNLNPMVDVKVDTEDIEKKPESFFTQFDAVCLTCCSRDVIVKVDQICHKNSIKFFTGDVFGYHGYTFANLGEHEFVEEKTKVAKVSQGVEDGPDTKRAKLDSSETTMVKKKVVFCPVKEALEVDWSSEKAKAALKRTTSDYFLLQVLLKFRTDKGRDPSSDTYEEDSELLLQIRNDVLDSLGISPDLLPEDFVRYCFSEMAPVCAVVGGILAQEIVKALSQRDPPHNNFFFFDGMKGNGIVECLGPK
# Source text: SAE inhibitors, as disclosed herein, are described, for example, in US 2016/0009744 and U.S. Pat. No. 9,695,154. They may be prepared by methods known to one skilled in the art and/or according to the methods described in US 2016/0009744 and U.S. Pat. No. 9,695,154, which is hereby incorporated by reference in its entirety. Central to the mechanism of action of useful SAE inhibitors, such as Compound I-263a, in combinations and methods of the present disclosure is production of type 1 IFNs and induction of an innate immune response with activation of dendritic cells, natural killer (NK) cells and macrophages.
smiles,measurement,setting,value
"Cc1sc(C(=O)c2cncnc2N[C@@H]2C[C@H](COS(N)(=O)=O)[C@@H](O)C2)cc1[C@@H]1NCCc2ccc(Cl)cc21 [Compound I-263a, [(1R,2S,4R)-4-{[5-({4-[(1R)-7-chloro-1,2,3,4-tetrahydroisoquinolin-1-yl]-5-methyl-2-thienyl}carbonyl)pyrimidin-4-yl]amino}-2-hydroxycyclopentyl]methyl sulfamate]",tumor growth inhibition relative to vehicle-treated tumors,[1],did not show any tumor growth inhibition
same,inhibition of SUMO-activating enzyme activity,SUMO-activating enzyme; mechanism-based inhibitor forming a covalent adduct with SUMO,potently inhibits enzyme activity
same,selectivity for SUMO-activating enzyme,"SUMO-activating enzyme; over ubiquitin-activating enzymes, Nedd8-activating enzyme, and autophagy related 7 enzyme",Strong selectivity
